Reference: patent US20230110378A1, “MONOBACTAM COMPOUND AND USE THEREOF” (EVOPOINT BIOSCIENCES CO., LTD., priority 2019, published 2023)
Converted amounts (≈) assume the structure as drawn.

Columns and labels:
Assay in all cases: Minimum inhibitory concentration (broth microdilution, CLSI)
Assay type in all cases: cell-based
[1] = test system: Escherichia coli HDBEC 30048; settings: HDBEC30048
Description: (§1) 103 bacterial strains used for the minimum inhibitory concentration test were frozen in a −80° C. ULT freezer and thawed 2 days before use. A small amount of frozen microorganism bacteria were scraped using a sterile inoculating loop, streaked onto a suitable solid culture dish for inoculation, and then cultured for about 20 h at 35 t 2° C. in a normal incubator. • Proteus mirabilis HDBPM 40: MA, normal atmospheric environment • The remaining 102 strains of bacteria: TSA, normal atmospheric environment
(§2) 5-10 colonies with similar morphology were picked from the culture dish using a sterile inoculating loop and then re-streaked onto a corresponding solid culture dish. Then the dish was incubated in a normal incubator at 35 t 2° C. for about 20 h.
(§3) 5-10 single microbial colonies were picked from the solid culture dish, resuspended in 500 μL of sterile normal saline (0.9% NaCl), and adjusted to an OD600 of about 0.15 with a spectrophotometer.
(§4) The bacteria were then diluted 300-fold with 1.02×CAMHB to an inoculation concentration of 2×10^5 CFU/mL.
(§5) • There were a total of 3 assay plate patterns, one of which was used for each assay. • 8 rows of the assay plate (rows A-H) were for 8 test compounds, respectively. The highest test concentration of the compounds was 16, 32 or 64 μg/mL, and each compound was diluted 2-fold. • Growth control (GC): a medium containing microbial inoculum (1.02×CAMHB) and dimethylsulfoxide (DMSO) but no compound.
(§6) The test and reference compounds were dissolved in DMSO or H2O to prepare 6.4 mg/mL stock solutions. The stock solutions were diluted to prepare standby solutions with certain concentrations, and the volumes of the standby solutions were determined according to the experimental design. Corresponding volumes of the standby solutions were transferred to the starting wells of a dilution plate (A1-H1), and half the starting-well volume of DMSO to the other wells. Each compound was diluted 2-fold sequentially from column 1 to column 11 (e.g., transferring 30 μL of DMSO to columns 2-12 first, then pipetting 30 μL of the compounds from column 1 to column 2 and mixing them well, then pipetting 30 μL of the compounds from column 2 to column 3 and mixing them well, then pipetting 30 μL of the compounds from column 3 to column 4 and mixing them well, and so on to column 11).
(§7) 1 or 2 μL of the compounds and DMSO were transferred from the compound plate to corresponding wells of the assay plates.
(§8) 98 μL of corresponding bacterial inocula were added to the assay plates.
(§9) After addition, the assay plates were covered with sterile covers. The mixtures in the assay plates were centrifuged in a centrifuge at 800 rpm for 30 s, mixed well on a microplate shaker at 400 rpm for 1 min, and incubated in a normal incubator at 35 t 2° C. for 20-24 h.
(§10) The assay plates were placed on a plate reading device, and the speculum was adjusted to observe and record the growth condition of bacteria in each well. In the mean time, each assay plate was photographed with QCount system.
(§11) The minimum inhibitory concentration of each compound was recorded by reference to guidelines from the Clinical and Laboratory Standards Institute.
(§12) The minimum inhibitory concentrations of the compounds against experimental strains were tested in this study by reference to the medium microdilution method as indicated by the Clinical and Laboratory Standards Institute. Compounds were diluted two-fold in 96-well plates from the highest detection concentration of 16, 32 or 64 μg/mL. The bacterial inocula in the assay plates were thawed from corresponding medium plates and diluted in 1.02×CAMHB, while growth controls (GC wells) were set up in the assay plates. The minimum inhibitory concentration of each compound against different bacteria was observed and recorded after the assay plates were incubated in a normal incubator at 35 t 2° C. for about 20 h. The minimum inhibitory concentration values for the different compounds are listed in the list below.

[2] = test system: Escherichia coli HDBEC 30008; settings: HDBEC30008
Description: as §1, §2, §3, §4, §5, §6, §7, §8, §9, §10, §11, §12

[3] = test system: Escherichia coli HDBEC 30016; settings: HDBEC30016
Description: as §1, §2, §3, §4, §5, §6, §7, §8, §9, §10, §11, §12

[4] = test system: Klebsiella pneumoniae HDBKP 9153; settings: HDBKP9153
Description: as §1, §2, §3, §4, §5, §6, §7, §8, §9, §10, §11, §12

[5] = test system: Klebsiella pneumoniae HDBKP 9249; settings: HDBKP9249
Description: as §1, §2, §3, §4, §5, §6, §7, §8, §9, §10, §11, §12

[6] = test system: Enterobacter cloacae HDBECL 30030; settings: HDBECL30030
Description: as §1, §2, §3, §4, §5, §6, §7, §8, §9, §10, §11, §12

[7] = test system: Proteus mirabilis HDBPM 40; settings: HDBPM40
Description: as §1, §2, §3, §4, §5, §6, §7, §8, §9, §10, §11, §12

[8] = test system: Klebsiella pneumoniae HDBKP 30006; settings: HDBKP30006
Description: as §1, §2, §3, §4, §5, §6, §7, §8, §9, §10, §11, §12

[9] = test system: Pseudomonas aeruginosa HDBPA 5679; settings: HDBPA5679
Description: as §1, §2, §3, §4, §5, §6, §7, §8, §9, §10, §11, §12

Compound	MIC [1] [µg/mL]	MIC [2] [µg/mL]	MIC [3] [µg/mL]	MIC [4] [µg/mL]	MIC [5] [µg/mL]	MIC [6] [µg/mL]	MIC [7] [µg/mL]	MIC [8] [µg/mL]	MIC [9] [µg/mL]
C[n+]1cc(C(=O)NC[C@@H]2[C@H](NC(=O)/C(=N\OC(C)(C)C(=O)O)c3csc(N)n3)C(=O)N2S(=O)(=O)O)sc1-c1cnn(CC(N)CN)c1 (stereo partly drawn) [Compound I-13]	> 16	8 to 16	> 16	4 to 8	< 4	4 to 8	< 4	8 to 16	> 16
CC(C)(O/N=C(\C(=O)N[C@@H]1C(=O)N(S(=O)(=O)O)[C@@H]1CNC(=O)c1cc([C@@H]2CCN(C(=O)c3cc(=O)c(O)cn3O)C2)no1)c1nsc(N)n1)C(=O)O [Compound I-14]	< 4	< 4	> 16	< 4	> 16	< 4	< 4	> 16	< 4
CC(C)(O/N=C(\C(=O)N[C@H]1C(=O)N(S(=O)(=O)O)[C@H]1CNC(=O)c1cc([C@@H]2CC[N+](C)(CCNC(=O)c3ccc(O)c(O)c3Cl)C2)no1)c1csc(N)n1)C(=O)O (stereo partly drawn) [Compound I-20]	8 to 16	< 4	> 16	8 to 16	> 16	< 4	< 4	> 16	8 to 16
CC(C)(O/N=C(\C(=O)N[C@@H]1C(=O)N(S(=O)(=O)O)[C@@H]1CNC(=O)c1cnc(C2=CC(CCCNC(=O)c3ccc(O)c(O)c3Cl)N=C2)s1)c1csc(N)n1)C(=O)O (stereo partly drawn) [Compound I-42]	< 4	< 4	< 4	< 4	8 to 16 (≈ 9.36 to 18.7 µM)	< 4	< 4	< 4	< 4
CC(C)(O/N=C(\C(=O)N[C@@H]1C(=O)N(S(=O)(=O)O)[C@@H]1CNC(=O)c1cnc([C@@H]2CC[N+](C)(C[C@H](N)CNC(=O)c3ccc(O)c(O)c3Cl)C2)s1)c1csc(N)n1)C(=O)O (stereo partly drawn) [Compound I-38]	< 4	< 4	< 4	< 4	8 to 16	< 4	< 4	8 to 16	< 4
CC(C)(O/N=C(\C(=O)N[C@@H]1C(=O)N(S(=O)(=O)O)[C@@H]1CNC(=O)c1cc(C2CNC2)no1)c1csc(N)n1)C(=O)O [Compound I-6]	> 16	< 4	> 16	> 16	< 4	< 4	< 4	> 16	> 16
C[n+]1cc(-c2ncc(C(=O)NC[C@@H]3[C@H](NC(=O)/C(=N\OC(C)(C)C(=O)O)c4csc(N)n4)C(=O)N3S(=O)(=O)O)s2)cn1CCCN [Compound I-2]	> 16	< 4	> 16	< 4	< 4	< 4	< 4	< 4	> 16
CC(C)(O/N=C(\C(=O)N[C@H]1C(=O)N(S(=O)(=O)O)[C@H]1CNC(=O)c1cc([C@@H]2CCN(C(=O)c3cc(=O)c(O)cn3O)C2)no1)c1nc(N)sc1Cl)C(=O)O [Compound I-26]	> 16	> 16	> 16	> 16	> 16	> 16	4 to 8 (≈ 4.99 to 9.97 µM)	> 16	> 16
CC(C)(O/N=C(\C(=O)N[C@@H]1C(=O)N(S(=O)(=O)O)[C@@H]1CNC(=O)c1cc([C@@H]2CCNC2)no1)c1csc(N)n1)C(=O)O [Compound I-5]	> 16	< 4	> 16	> 16	< 4	< 4	< 4	> 16	> 16
CC(C)(O/N=C(\C(=O)N[C@@H]1C(=O)N(S(=O)(=O)O)[C@@H]1CNC(=O)c1cc([C@@H]2CCN(CCNC(=O)c3cc(=O)c(O)cn3O)C2)no1)c1csc(N)n1)C(=O)O [Compound I-40]	< 4	< 4	< 4	< 4	8 to 16 (≈ 9.87 to 19.7 µM)	< 4	< 4	8 to 16 (≈ 9.87 to 19.7 µM)	< 4
C[n+]1cc(-c2ncc(C(=O)NC[C@@H]3[C@H](NC(=O)/C(=N\OC(C)(C)C(=O)O)c4nsc(N)n4)C(=O)N3S(=O)(=O)O)s2)cn1CCCN [Compound I-16]	> 16	8 to 16	> 16	> 16	8 to 16	> 16	< 4	> 16	> 16

Other lines, results leading:

MIC [1] [µg/mL]	MIC [2] [µg/mL]	MIC [3] [µg/mL]	MIC [4] [µg/mL]	MIC [5] [µg/mL]	MIC [6] [µg/mL]	MIC [7] [µg/mL]	MIC [8] [µg/mL]	MIC [9] [µg/mL]	Compound
< 4	< 4	< 4	< 4	8 to 16 (≈ 9.39 to 18.8 µM)	< 4	< 4	8 to 16 (≈ 9.39 to 18.8 µM)	< 4	Cc1c(O)c(=O)cc(C(=O)NCCCn2cc(-c3ncc(C(=O)NC[C@@H]4[C@H](NC(=O)/C(=N\OC(C)(C)C(=O)O)c5csc(N)n5)C(=O)N4S(=O)(=O)O)s3)cn2)n1O [Compound I-46]
< 4	< 4	< 4	< 4	4 to 8	< 4	< 4	8 to 16	< 4	C[n+]1cc(-c2ncc(C(=O)NC[C@@H]3[C@H](NC(=O)/C(=N\OC(C)(C)C(=O)O)c4csc(N)n4)C(=O)N3S(=O)(=O)O)s2)cn1CCCNC(=O)c1cc(=O)c(O)cn1O [Compound I-12]
< 4	< 4	4 to 8 (≈ 5 to 10 µM)	< 4	< 4	< 4	< 4	8 to 16 (≈ 10 to 20 µM)	< 4	CC(C)(O/N=C(\C(=O)N[C@@H]1C(=O)N(S(=O)(=O)O)[C@@H]1CNC(=O)c1cc([C@@H]2CCN(CCNc3ccc(O)c(O)c3Cl)C2)no1)c1csc(N)n1)C(=O)O [Compound I-36]
< 4	< 4	4 to 8 (≈ 4.88 to 9.76 µM)	< 4	8 to 16 (≈ 9.76 to 19.5 µM)	< 4	< 4	> 16	4 to 8 (≈ 4.88 to 9.76 µM)	CC(C)(O/N=C(\C(=O)N[C@H]1C(=O)N(S(=O)(=O)O)[C@H]1CNC(=O)c1cc([C@@H]2CCN(C(=O)c3cc(Cl)c(O)c(O)c3Cl)C2)no1)c1csc(N)n1)C(=O)O [Compound I-19]
< 4	< 4	8 to 16 (≈ 10.2 to 20.4 µM)	4 to 8 (≈ 5.09 to 10.2 µM)	> 16	< 4	< 4	> 16	4 to 8 (≈ 5.09 to 10.2 µM)	CC(C)(O/N=C(\C(=O)N[C@H]1C(=O)N(S(=O)(=O)O)[C@H]1CNC(=O)c1cc([C@@H]2CCN(C(=O)c3ccc(O)c(O)c3Cl)C2)no1)c1csc(N)n1)C(=O)O [Compound I-18]
